Measured values reported in PubChem BioAssay (NCI).
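The compound was tested at five concentrations on cells cultured in 96-well plates, with a 48-hour exposure period. TGI denotes the concentration required for complete inhibition of growth.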

Tests used:
Experiment in all cases: DTP human tumour cell line panel, 48 h
SF-295 CNS = system: SF-295 CNS
SK-MEL-28 melanoma = system: SK-MEL-28 melanoma
MDA-N = system: MDA-N
IGROV1 ovarian = system: IGROV1 ovarian
BT-549 breast = system: BT-549 breast
A498 renal = system: A498 renal
SK-MEL-2 melanoma = system: SK-MEL-2 melanoma
SK-OV-3 ovarian = system: SK-OV-3 ovarian
NCI-H226 lung = system: NCI-H226 lung
UO-31 renal = system: UO-31 renal
NCI-H522 lung = system: NCI-H522 lung
EKVX NSCLC = system: EKVX NSCLC
SR leukemia = system: SR leukemia
SNB-75 CNS = system: SNB-75 CNS
OVCAR-5 ovarian = system: OVCAR-5 ovarian
UACC-62 melanoma = system: UACC-62 melanoma
K-562 leukemia = system: K-562 leukemia
786-0 renal = system: 786-0 renal
RXF 393 renal = system: RXF 393 renal
M14 melanoma = system: M14 melanoma
SNB-19 CNS = system: SNB-19 CNS
LOX IMVI melanoma = system: LOX IMVI melanoma
SF-268 CNS = system: SF-268 CNS
SW-620 colon = system: SW-620 colon
TK-10 renal = system: TK-10 renal
MALME-3M melanoma = system: MALME-3M melanoma
NCI-H23 lung = system: NCI-H23 lung
MOLT-4 leukemia = system: MOLT-4 leukemia
MDA-MB-231 breast = system: MDA-MB-231 breast
UACC-257 melanoma = system: UACC-257 melanoma
T-47D breast = system: T-47D breast
MDA-MB-435 = system: MDA-MB-435
SN12C renal = system: SN12C renal
RPMI-8226 leukemia = system: RPMI-8226 leukemia
NCI/ADR-RES ovarian = system: NCI/ADR-RES ovarian
OVCAR-8 ovarian = system: OVCAR-8 ovarian
ACHN renal = system: ACHN renal
NCI-H460 lung = system: NCI-H460 lung
KM12 colon = system: KM12 colon
A549 NSCLC = system: A549 NSCLC
MCF7 breast = system: MCF7 breast
HCT-15 colon = system: HCT-15 colon
COLO 205 colon = system: COLO 205 colon
SK-MEL-5 melanoma = system: SK-MEL-5 melanoma
HOP-62 NSCLC = system: HOP-62 NSCLC
HS 578T breast = system: HS 578T breast
HT29 colon = system: HT29 colon
HOP-92 NSCLC = system: HOP-92 NSCLC
U251 CNS = system: U251 CNS
HCT-116 colon = system: HCT-116 colon
HCC-2998 colon = system: HCC-2998 colon
SF-539 CNS = system: SF-539 CNS
OVCAR-4 ovarian = system: OVCAR-4 ovarian
CAKI-1 renal = system: CAKI-1 renal
HL-60(TB) leukemia = system: HL-60(TB) leukemia
PC-3 prostate = system: PC-3 prostate
OVCAR-3 ovarian = system: OVCAR-3 ovarian
DU-145 prostate = system: DU-145 prostate
CCRF-CEM leukemia = system: CCRF-CEM leukemia

With `COC(=O)C1=C(O)C(C(=O)OC)[C@]2(O)[C@H](C(=O)OC)[C@H]1C[C@@H](c1cccc(OC)c1)[C@H]2C(=O)OC` (stereo partly specified) the TGI (SF-295 CNS) was greater than 100 µM, the TGI (SK-MEL-28 melanoma) was greater than 100 µM and the TGI (MDA-N) was 64.4 µM. For the same compound, the TGI (IGROV1 ovarian) was greater than 100 µM, the TGI (BT-549 breast) was greater than 100 µM and the TGI (A498 renal) was 55.9 µM. The TGI (SK-MEL-2 melanoma) was 44.5 µM, the TGI (SK-OV-3 ovarian) was 66.6 µM and the TGI (NCI-H226 lung) was greater than 100 µM. For the same compound, the TGI (UO-31 renal) was 34.7 µM, the TGI (NCI-H522 lung) was 33.3 µM and the TGI (EKVX NSCLC) was greater than 100 µM. It also gave a TGI (SR leukemia) greater than 100 µM, a TGI (SNB-75 CNS) greater than 100 µM and a TGI (OVCAR-5 ovarian) of 66.4 µM. For the same compound, the TGI (UACC-62 melanoma) was 35.1 µM, the TGI (K-562 leukemia) was greater than 100 µM and the TGI (786-0 renal) was 56.1 µM. It also gave a TGI (RXF 393 renal) of 43.1 µM, a TGI (M14 melanoma) greater than 100 µM and a TGI (SNB-19 CNS) of 81.7 µM. The TGI (LOX IMVI melanoma) was greater than 100 µM, the TGI (SF-268 CNS) was greater than 100 µM and the TGI (SW-620 colon) was greater than 100 µM. The TGI (TK-10 renal) was greater than 100 µM, the TGI (MALME-3M melanoma) was greater than 100 µM and the TGI (NCI-H23 lung) was greater than 100 µM. The TGI (MOLT-4 leukemia) was greater than 100 µM, the TGI (MDA-MB-231 breast) was 78.3 µM and the TGI (UACC-257 melanoma) was greater than 100 µM. The TGI (T-47D breast) was greater than 100 µM, the TGI (MDA-MB-435) was 55.2 µM and the TGI (SN12C renal) was 65.7 µM. It also gave a TGI (RPMI-8226 leukemia) greater than 100 µM, a TGI (NCI/ADR-RES ovarian) greater than 100 µM and a TGI (OVCAR-8 ovarian) greater than 100 µM. It also gave a TGI (ACHN renal) of 40.4 µM, a TGI (NCI-H460 lung) of 65.7 µM and a TGI (KM12 colon) of 69.8 µM. It also gave a TGI (A549 NSCLC) of 75.3 µM, a TGI (MCF7 breast) greater than 100 µM and a TGI (HCT-15 colon) of 86.3 µM. For the same compound, the TGI (COLO 205 colon) was greater than 100 µM, the TGI (SK-MEL-5 melanoma) was greater than 100 µM and the TGI (HOP-62 NSCLC) was 89.5 µM. For the same compound, the TGI (HS 578T breast) was 55 µM, the TGI (HT29 colon) was greater than 100 µM and the TGI (HOP-92 NSCLC) was greater than 100 µM. For the same compound, the TGI (U251 CNS) was 68.7 µM, the TGI (HCT-116 colon) was 65.6 µM and the TGI (HCC-2998 colon) was 42.7 µM. It also gave a TGI (SF-539 CNS) greater than 100 µM, a TGI (OVCAR-4 ovarian) of 96.4 µM and a TGI (CAKI-1 renal) of 73.3 µM. For the same compound, the TGI (HL-60(TB) leukemia) was greater than 100 µM.
`O=c1[nH]c2nccnc2c2c([N+](=O)[O-])cccc12` gave a TGI (SF-295 CNS) greater than 100 µM, a TGI (SK-MEL-28 melanoma) greater than 100 µM and a TGI (MDA-N) greater than 100 µM. It also gave a TGI (IGROV1 ovarian) greater than 100 µM, a TGI (BT-549 breast) greater than 100 µM and a TGI (A498 renal) greater than 100 µM. For the same compound, the TGI (SK-MEL-2 melanoma) was greater than 100 µM, the TGI (PC-3 prostate) was greater than 100 µM and the TGI (SK-OV-3 ovarian) was greater than 100 µM. The TGI (NCI-H226 lung) was greater than 100 µM, the TGI (UO-31 renal) was greater than 100 µM and the TGI (NCI-H522 lung) was greater than 100 µM. For the same compound, the TGI (EKVX NSCLC) was greater than 100 µM, the TGI (SR leukemia) was greater than 100 µM and the TGI (SNB-75 CNS) was greater than 100 µM. For the same compound, the TGI (OVCAR-5 ovarian) was greater than 100 µM, the TGI (UACC-62 melanoma) was greater than 100 µM and the TGI (K-562 leukemia) was greater than 100 µM. It also gave a TGI (786-0 renal) greater than 100 µM, a TGI (RXF 393 renal) greater than 100 µM and a TGI (OVCAR-3 ovarian) greater than 100 µM. The TGI (M14 melanoma) was greater than 100 µM, the TGI (SNB-19 CNS) was greater than 100 µM and the TGI (LOX IMVI melanoma) was greater than 100 µM. It also gave a TGI (SF-268 CNS) greater than 100 µM, a TGI (SW-620 colon) greater than 100 µM and a TGI (TK-10 renal) greater than 100 µM. It also gave a TGI (MALME-3M melanoma) greater than 100 µM, a TGI (NCI-H23 lung) greater than 100 µM and a TGI (MOLT-4 leukemia) greater than 100 µM. It also gave a TGI (T-47D breast) of 73.4 µM, a TGI (MDA-MB-435) greater than 100 µM and a TGI (SN12C renal) greater than 100 µM. For the same compound, the TGI (RPMI-8226 leukemia) was greater than 100 µM, the TGI (NCI/ADR-RES ovarian) was greater than 100 µM and the TGI (OVCAR-8 ovarian) was greater than 100 µM. It also gave a TGI (ACHN renal) greater than 100 µM, a TGI (NCI-H460 lung) greater than 100 µM and a TGI (KM12 colon) greater than 100 µM. It also gave a TGI (A549 NSCLC) greater than 100 µM, a TGI (MCF7 breast) greater than 100 µM and a TGI (HCT-15 colon) greater than 100 µM. The TGI (DU-145 prostate) was greater than 100 µM, the TGI (COLO 205 colon) was greater than 100 µM and the TGI (SK-MEL-5 melanoma) was greater than 100 µM. The TGI (HOP-62 NSCLC) was greater than 100 µM, the TGI (CCRF-CEM leukemia) was greater than 100 µM and the TGI (HS 578T breast) was greater than 100 µM. It also gave a TGI (HT29 colon) greater than 100 µM, a TGI (U251 CNS) greater than 100 µM and a TGI (HCT-116 colon) greater than 100 µM. The TGI (HCC-2998 colon) was greater than 100 µM, the TGI (SF-539 CNS) was greater than 100 µM and the TGI (OVCAR-4 ovarian) was greater than 100 µM. For the same compound, the TGI (HL-60(TB) leukemia) was greater than 100 µM.
`CN(C)Cc1cc(C(C)(C)C)cc(CNC2CCCCC2)c1O` showed a TGI (SF-295 CNS) of 57.1 µM, a TGI (SK-MEL-28 melanoma) greater than 100 µM and a TGI (MDA-N) greater than 100 µM. It also gave a TGI (IGROV1 ovarian) greater than 100 µM, a TGI (BT-549 breast) greater than 100 µM and a TGI (A498 renal) greater than 100 µM. It also gave a TGI (SK-MEL-2 melanoma) greater than 100 µM, a TGI (PC-3 prostate) greater than 100 µM and a TGI (SK-OV-3 ovarian) greater than 100 µM. The TGI (UO-31 renal) was 34.6 µM, the TGI (NCI-H522 lung) was 60.4 µM and the TGI (EKVX NSCLC) was greater than 100 µM. It also gave a TGI (SR leukemia) of 71.8 µM, a TGI (SNB-75 CNS) greater than 100 µM and a TGI (OVCAR-5 ovarian) of 73.3 µM. The TGI (UACC-62 melanoma) was greater than 100 µM, the TGI (K-562 leukemia) was 76.2 µM and the TGI (786-0 renal) was greater than 100 µM. The TGI (RXF 393 renal) was greater than 100 µM, the TGI (OVCAR-3 ovarian) was greater than 100 µM and the TGI (M14 melanoma) was 34.4 µM. For the same compound, the TGI (SNB-19 CNS) was greater than 100 µM, the TGI (LOX IMVI melanoma) was 76.5 µM and the TGI (SF-268 CNS) was 47.4 µM. For the same compound, the TGI (SW-620 colon) was greater than 100 µM, the TGI (TK-10 renal) was greater than 100 µM and the TGI (MALME-3M melanoma) was 64 µM. For the same compound, the TGI (NCI-H23 lung) was greater than 100 µM, the TGI (MOLT-4 leukemia) was 33.5 µM and the TGI (MDA-MB-231 breast) was greater than 100 µM. The TGI (UACC-257 melanoma) was 79.8 µM, the TGI (T-47D breast) was greater than 100 µM and the TGI (MDA-MB-435) was greater than 100 µM. It also gave a TGI (SN12C renal) greater than 100 µM, a TGI (RPMI-8226 leukemia) of 57.9 µM and a TGI (NCI/ADR-RES ovarian) of 69.4 µM. For the same compound, the TGI (ACHN renal) was greater than 100 µM, the TGI (NCI-H460 lung) was 44.6 µM and the TGI (KM12 colon) was greater than 100 µM. It also gave a TGI (A549 NSCLC) greater than 100 µM, a TGI (MCF7 breast) greater than 100 µM and a TGI (HCT-15 colon) greater than 100 µM. For the same compound, the TGI (DU-145 prostate) was greater than 100 µM, the TGI (COLO 205 colon) was 33.3 µM and the TGI (SK-MEL-5 melanoma) was 30.2 µM. The TGI (HOP-62 NSCLC) was greater than 100 µM, the TGI (CCRF-CEM leukemia) was 43.7 µM and the TGI (HS 578T breast) was greater than 100 µM. It also gave a TGI (HT29 colon) of 54.6 µM, a TGI (HOP-92 NSCLC) of 59.7 µM and a TGI (U251 CNS) greater than 100 µM. The TGI (HCT-116 colon) was 71.5 µM, the TGI (HCC-2998 colon) was 23.7 µM and the TGI (SF-539 CNS) was 63.5 µM. It also gave a TGI (OVCAR-4 ovarian) greater than 100 µM and a TGI (CAKI-1 renal) greater than 100 µM.
